Measured values taken from patent US12065421B2, “Inhibitors of oplophorus luciferase-derived bioluminescent complexes” (priority 2018, dated 2024).

Each compound was assayed against T1, NanoBiT® HiBiT non-luminescent peptide and LgBiT non-luminescent polypeptide (HiBiT/LgBiT bioluminescent complex) (Oplophorus gracilirostris, UniProt Q9GV45, A31E/A60N/A81I/C191F/D135N/E192K/F58L/F95D/G184S/G42A/G62A/G78A/G94A/G98A/H120P/I103V/I117V/I134L/K70R/L176M/L195S/L54V/L73R/L99Q/M102E/N171T/N193K/P142E/Q151K/Q38E/Q45L/T186S/V71I/Y165I) (assay: biochemical).
T1 construct: fused on or other part: N-terminal Met-Val on LgBiT in place of the signal peptide (residues 1-27); The chain is split between residues 184 and 185 into LgBiT and the 11-residue HiBiT peptide (residues 185-195); C-terminal A196 is absent
T1 sequence (Q9GV45 other isoform, or with tags, fused parts or gaps with the stated changes): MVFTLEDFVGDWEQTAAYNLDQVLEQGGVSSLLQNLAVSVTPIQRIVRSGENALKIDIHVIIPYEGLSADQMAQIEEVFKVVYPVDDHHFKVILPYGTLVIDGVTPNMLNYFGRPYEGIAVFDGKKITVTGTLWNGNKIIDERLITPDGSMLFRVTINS

First: CCCCc1cccc(NC(=O)c2ccccc2NS(=O)(=O)c2ccc(C)cc2)c1 [HL-0070, N-(3-butylphenyl)-2-((4-methylphenyl)sulfonamido)benzamide]
Second: CCCCc1ccc(NC(=O)c2ccccc2NS(=O)(=O)c2ccc(C)cc2)cc1 [JRW-1076, N-(4-butylphenyl)-2-((4-methylphenyl)sulfonamido)benzamide]
The IC50 of the first is 5-fold higher: 130 nM for the first, 26 nM for the second.

`COc1cccc(S(=O)(=O)Nc2ccccc2C(=O)Nc2ccc(C)cc2)c1` [JRW-1205, 2-((3-methoxyphenyl)sulfonamido)-N-(p-tolyl)benzamide] and `Cc1ccc(NC(=O)c2ccccc2NS(=O)(=O)c2cccc(O)c2)cc1` [JRW-1236, 2-((3-hydroxyphenyl)sulfonamido)-N-(p-tolyl)benzamide] are within 1.5-fold of each other in IC50: 29 nM for the first, 33 nM for the second.

First: Cc1ccc(NC(=O)c2ccccc2NS(=O)(=O)c2cccc(CO)c2)cc1 [JRW-1261, 2-((3-(hydroxymethyl)phenyl)sulfonamido)-N-(p-tolyl)benzamide]
Second: CC(=O)Nc1cccc(S(=O)(=O)Nc2ccccc2C(=O)Nc2ccc(C)cc2)c1 [JRW-1253, 2-((3-acetamidophenyl)sulfonamido)-N-(p-tolyl)benzamide]
The IC50 of the first is 14-fold lower: 170 nM for the first, 2300 nM for the second. The first is the more potent here.

`Cc1ccc(S(=O)(=O)Nc2ccccc2C(=O)Nc2cccc(C)c2)cc1` [HL-0044, 2-((4-methylphenyl)sulfonamido)-N-(m-tolyl)benzamide] and `Cc1ccc(S(=O)(=O)Nc2ccccc2C(=O)Nc2ccccc2)cc1` [JRW-1011, 2-((4-methylphenyl)sulfonamido)-N-phenylbenzamide] are within 1.5-fold of each other in IC50: 88 nM for the first, 94 nM for the second.

Compared with `CCCCOc1cccc(S(=O)(=O)Nc2ccccc2C(=O)Nc2ccc(C)cc2)c1` [JRW-1266, 2-((3-butoxyphenyl)sulfonamido)-N-(p-tolyl)benzamide], `COc1ccc(S(=O)(=O)Nc2ccccc2C(=O)Nc2ccc(C)cc2)cc1` [JRW-1285, 2-((4-methoxyphenyl)sulfonamido)-N-(p-tolyl)benzamide] is 4.2-fold lower in IC50: 1500 nM for the first, 360 nM for the second. The second is the more potent here.

Going from `Cc1ccc(S(=O)(=O)Nc2ccc(F)cc2C(=O)Nc2cc3ccccc3s2)cc1` [JRW-1347, N-(benzo[b]thiophen-2-yl)-5-fluoro-2-((4-methylphenyl)sulfonamido)benzamide] to `Cc1cccc(S(=O)(=O)Nc2ccccc2C(=O)Nc2cc3ccccc3s2)c1` [HL-0041, N-(benzo[b]thiophen-2-yl)-2-((3-methylphenyl)sulfonamido)benzamide], the IC50 rises from 0.8 nM to 13 nM (16-fold).

Compared with `Cc1ccc(S(=O)(=O)Nc2ccccc2C(=O)Nc2cccc(-c3ccccc3)c2)cc1` [JRW-1297, N-([1,1′-biphenyl]-3-yl)-2-((4-methylphenyl)sulfonamido)benzamide], `Cc1ccc(NC(=O)c2ccccc2NS(=O)(=O)c2cccc(-c3ccccc3)c2)cc1` [JRW-1248, 2-([1,1′-biphenyl]-3-sulfonamido)-N-(p-tolyl)benzamide] is 2.8-fold higher in IC50: 100 nM for the first, 280 nM for the second. The first is the more potent here.

Compared with `Cc1ccc(NC(=O)c2ccccc2NS(=O)(=O)c2ccc(C(F)(F)F)cc2)cc1` [JRW-1284, N-(p-tolyl)-2-((4-(trifluoromethyl)phenyl)sulfonamido)benzamide], `Cc1ccc(NC(=O)c2ccccc2NS(=O)(=O)c2ccc(Br)cc2)cc1` [JRW-1287, 2-((4-bromophenyl)sulfonamido)-N-(p-tolyl)benzamide] is 4.7-fold lower in IC50: 710 nM for the first, 150 nM for the second. The second is the more potent here.

Going from `CCOC(=O)Cc1ccc(NC(=O)c2ccccc2NS(=O)(=O)c2ccc(C)cc2)cc1` [HL-0023, ethyl 2-(4-(2-((4-methylphenyl)sulfonamido)benzamido)phenyl)acetate] to `Cc1ccc(S(=O)(=O)Nc2ccccc2C(=O)Nc2ccc(CCCCBr)cc2)cc1` [JRW-1152, N-(4-(4-bromobutyl)phenyl)-2-((4-methylphenyl)sulfonamido)benzamide], the IC50 falls from 580 nM to 120 nM (4.8-fold).

Compound `COc1ccc(NS(=O)(=O)c2ccc(C)cc2)c(C(=O)Nc2ccc(C)cc2)c1` [JRW-1166, 5-methoxy-2-((4-methylphenyl)sulfonamido)-N-(p-tolyl)benzamide] has an IC50 of 130 nM.
